{"source": "patent US7465556B2", "about": "“Method of immunoassay tartrate resistant acid phosphatase 5b and kit to be used therein” (Nitto Boseki Co., Ltd., priority 2003, dated 2008)", "key": {"TRACP 5a [1]": {"target": "T1, TRACP 5a (Homo sapiens, UniProt P13686)", "T1 construct": "TRACP 5a derived from human serum and eluted from a HiTrap Heparin HP column; from tissue; host or cells: human serum, heparin column fraction", "T1 sequence (P13686 22-325)": "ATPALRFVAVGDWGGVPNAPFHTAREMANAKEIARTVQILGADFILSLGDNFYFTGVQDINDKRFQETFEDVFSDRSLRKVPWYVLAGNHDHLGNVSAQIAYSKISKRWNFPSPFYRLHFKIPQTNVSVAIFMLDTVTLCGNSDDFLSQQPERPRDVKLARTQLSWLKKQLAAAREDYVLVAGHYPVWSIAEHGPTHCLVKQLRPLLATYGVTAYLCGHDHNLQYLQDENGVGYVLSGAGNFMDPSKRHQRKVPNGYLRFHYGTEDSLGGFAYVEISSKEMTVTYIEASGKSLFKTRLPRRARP", "assay": "Enzymatic activity of TRACP 5a bound to immobilized anti-TRACP 5b antibody plate, end-point absorbance", "assay_type": "biochemical", "protocol": "(§1) The pH of a buffer solution containing a substrate CNPP was varied from 5.6 to 6.8 and the activity of TRACP 5b and TRACP 5a for this substrate was assayed. This substrate buffer solution had the following composition: CNPP 5 mM, Mes 0.1 M and sodium tartrate 40 mM. Its pH was adjusted to values varying from 5.6 to 6.8 by steps of 0.2. TRACP 5b and TRACP 5a used as samples were prepared by separating human serum by the use of a Heparin column and concentrating a fraction corresponding to a peak due to each of TRACP 5a and TRACP 5b. As TRACP 5a, there was used a sample having such a concentration that its absorbance was 0.8 at pH 5.6 (the optimum for TRACP 5a). As TRACP 5b, there was used a sample having such a concentration that its absorbance was 0.8 at pH 6.4 (the optimum for TRACP 5b). As to a method for the assay, a plate having an anti-TRACP 5b antibody Trk27 immobilized thereon was used and 100 μl of each sample was added to each well and stirred with shaking at room temperature for 1 hour. Then, the reaction solution was discarded and each well was washed three times with 200 μl of Tris buffer containing 0.05% Tween 20. Thereafter, 100 μl of the substrate buffer solution was added to each well and shaken for 30 seconds, followed by incubation in an incubator at 37° C. for 1 hour. Then, 50 μl of 0.2N NaOH was added to each well to terminate the enzyme reaction and the absorbance of the reaction solution was measured with a microtiter plate reader. Under such conditions, the optimum pH for TRACP 5b was about 6.4 and that for TRACP 5a was 5.6.\n(§2) Absorbance values due to the reaction of a buffer solution containing a substrate CNPP with each of TRACP 5a and TRACP 5b at pHs 6.2, 6.4, 6.6 and 6.8 were compared with results obtained in a comparative example using a buffer solution (pH 6.1) containing, as a substrate, PNPP that is considered suitable for the assay of TRACP 5b. According to the method disclosed in Japanese Patent Application Kohyo No. 2002-510050, the composition of this PNPP substrate buffer solution was as follows: PNPP 8 mM, sodium acetate 0.1M, sodium tartrate 40 mM, pH 6.1. As a sample of TRACP 5b, the same sample as in Example 1 was used. As a sample of TRACP 5a, a sample was used which had been prepared so that in the comparative example (PNPP was used at pH 6.1), a value for TRACP 5a might be one-tenth that for TRACP 5b according to the data disclosed in Japanese Patent Application Kohyo No. 2002-510050. The same assay procedure as in Example 1 was carried out and absorbance was used as an indication of the enzymatic activity."}, "TRACP 5b [2]": {"system": "TRACP 5b", "assay": "Enzymatic activity of TRACP 5b bound to immobilized anti-TRACP 5b antibody plate, end-point absorbance", "assay_type": "biochemical, human", "details": "pH 6.9"}, "TRACP 5b [3]": {"system": "TRACP 5b", "assay": "Enzymatic activity of TRACP 5b bound to immobilized anti-TRACP 5b antibody plate, end-point absorbance", "assay_type": "biochemical, human", "protocol": "as §1, §2"}, "TRACP 5b [4]": {"target": "T2, TRACP 5b (Homo sapiens, UniProt P13686)", "T2 sequence (P13686 22-325)": "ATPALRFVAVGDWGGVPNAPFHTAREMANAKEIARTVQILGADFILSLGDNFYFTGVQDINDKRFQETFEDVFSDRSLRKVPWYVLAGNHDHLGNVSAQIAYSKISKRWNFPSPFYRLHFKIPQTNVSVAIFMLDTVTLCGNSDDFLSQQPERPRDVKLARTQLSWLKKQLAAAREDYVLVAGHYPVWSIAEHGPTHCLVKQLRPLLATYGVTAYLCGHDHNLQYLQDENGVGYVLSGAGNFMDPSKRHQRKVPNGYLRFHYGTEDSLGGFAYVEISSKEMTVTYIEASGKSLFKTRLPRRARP", "details": "pH 5.8; according to Clin. Chem., 47(1), 74-80; cited from earlier work"}, "TRACP 5a [5]": {"target": "T1, TRACP 5a", "details": "pH 5.2; according to Clin. Chem., 47(1), 74-80; cited from earlier work"}, "[6]": {"substrate": "O=[N+]([O-])c1ccc(OP(=O)(O)O)c(Cl)c1", "assay": "Km measurement of substrate with TRACP 5b", "assay_type": "biochemical, human", "details": "other: pH 6.4", "protocol": "(§3) In order to investigate the difference between TRACP 5b and TRACP 5a in reactivity with 2-chloro-4-nitrophenylphosphoric acid (CNPP), Km for each of them was measured.\n(§4) That is, for the assay of TRACP 5b, CNPP used in the present invention is more advantageous than PNPP from the viewpoint of affinity and specificity."}, "[7]": {"substrate": "O=[N+]([O-])c1ccc(OP(=O)(O)O)c(Cl)c1", "assay": "Km measurement of substrate with TRACP 5a", "assay_type": "biochemical, human", "details": "other: pH 5.6", "protocol": "as §3, §4"}, "[8]": {"details": "pH 6.1, PNPP 8 mM, sodium acetate 0.1M, sodium tartrate 40 mM"}}}
{"molecule": "O=[N+]([O-])c1ccc(OP(=O)(O)O)c(Cl)c1", "note": "[CNPP, 2-chloro-4-nitrophenylphosphoric acid]", "values": [{"measurement": "optimum pH for TRACP 5a", "setting": "TRACP 5a [1]; CNPP 5 mM, Mes 0.1 M, sodium tartrate 40 mM, pH 5.6 to 6.8, 37° C. 1 hour", "value": 5.6}, {"measurement": "absorbance (enzymatic activity), sample TRACP 5a", "setting": "TRACP 5a [1]; pH 6.2", "value": 0.062}, {"measurement": "absorbance (enzymatic activity), sample TRACP 5a", "setting": "TRACP 5a [1]; pH 6.4", "value": 0.047}, {"measurement": "absorbance (enzymatic activity), sample TRACP 5a", "setting": "TRACP 5a [1]; pH 6.6", "value": 0.038}, {"measurement": "absorbance (enzymatic activity), sample TRACP 5a", "setting": "TRACP 5a [1]; pH 6.9", "value": 0.025}, {"measurement": "TRACP 5b/5a ratio", "setting": "TRACP 5b [2]", "value": 16}, {"measurement": "absorbance (enzymatic activity), sample TRACP 5b", "setting": "TRACP 5b [2]", "value": 0.401}, {"measurement": "TRACP 5b/5a ratio", "setting": "TRACP 5b [3]; pH 6.2", "value": 13}, {"measurement": "absorbance (enzymatic activity), sample TRACP 5b", "setting": "TRACP 5b [3]; pH 6.2", "value": 0.802}, {"measurement": "TRACP 5b/5a ratio", "setting": "TRACP 5b [3]; pH 6.4", "value": 17}, {"measurement": "absorbance (enzymatic activity), sample TRACP 5b", "setting": "TRACP 5b [3]; pH 6.4", "value": 0.811}, {"measurement": "TRACP 5b/5a ratio", "setting": "TRACP 5b [3]; pH 6.6", "value": 18}, {"measurement": "absorbance (enzymatic activity), sample TRACP 5b", "setting": "TRACP 5b [3]; pH 6.6", "value": 0.674}]}
{"molecule": "O=[N+]([O-])c1ccc(OP(=O)(O)O)cc1", "note": "[PNPP, p-nitrophenylphosphoric acid, reference compound]", "values": [{"measurement": "absorbance (enzymatic activity), sample TRACP 5a", "setting": "TRACP 5a [1]; pH 6.1, PNPP 8 mM, sodium acetate 0.1M, sodium tartrate 40 mM, 5a sample prepared to give one-tenth of 5b value", "value": 0.098}, {"measurement": "Km", "setting": "TRACP 5b [4]", "value": 7000, "unit": "µM"}, {"measurement": "Km", "setting": "TRACP 5a [5]", "value": 1900, "unit": "µM"}, {"measurement": "TRACP 5b/5a ratio", "setting": "TRACP 5b [3]; [8]", "value": 10}, {"measurement": "absorbance (enzymatic activity), sample TRACP 5b", "setting": "TRACP 5b [3]; [8]", "value": 0.981}]}
{"molecule": "TRACP 5b (Homo sapiens) (protein) ATPALRFVAVGDWGGVPNAPFHTAREMANAKEIARTVQILGADFILSLGDNFYFTGVQDINDKRFQETFEDVFSDRSLRKVPWYVLAGNHDHLGNVSAQIAYSKISKRWNFPSPFYRLHFKIPQTNVSVAIFMLDTVTLCGNSDDFLSQQPERPRDVKLARTQLSWLKKQLAAAREDYVLVAGHYPVWSIAEHGPTHCLVKQLRPLLATYGVTAYLCGHDHNLQYLQDENGVGYVLSGAGNFMDPSKRHQRKVPNGYLRFHYGTEDSLGGFAYVEISSKEMTVTYIEASGKSLFKTRLPRRARP", "values": [{"measurement": "Km", "setting": "[6]", "value": 1500, "unit": "µM"}]}
{"molecule": "TRACP 5a (Homo sapiens) (protein, TRACP 5a derived from human serum and eluted from a HiTrap Heparin HP column; from tissue; host or cells: human serum, heparin column fraction) ATPALRFVAVGDWGGVPNAPFHTAREMANAKEIARTVQILGADFILSLGDNFYFTGVQDINDKRFQETFEDVFSDRSLRKVPWYVLAGNHDHLGNVSAQIAYSKISKRWNFPSPFYRLHFKIPQTNVSVAIFMLDTVTLCGNSDDFLSQQPERPRDVKLARTQLSWLKKQLAAAREDYVLVAGHYPVWSIAEHGPTHCLVKQLRPLLATYGVTAYLCGHDHNLQYLQDENGVGYVLSGAGNFMDPSKRHQRKVPNGYLRFHYGTEDSLGGFAYVEISSKEMTVTYIEASGKSLFKTRLPRRARP", "values": [{"measurement": "Km", "setting": "[7]", "value": 3500, "unit": "µM"}]}
